Earlier results on one compound are cited in patent US20190078102A1, “BIOSYNTHETIC PRODUCTION OF STEVIOL GLYCOSIDES AND PROCESSES THEREFORE” (Conagen-Inc., priority 2017, published 2019).

The conditions of this data set: background statement.

Turning to `C=C1C[C@@]23CC[C@H]4[C@@](C)(CCC[C@@]4(C)C(=O)O[C@@H]4O[C@H](CO)[C@@H](O)[C@H](O)[C@H]4O)[C@@H]2CC[C@]1(O[C@@H]1O[C@H](CO)[C@@H](O)[C@H](O)[C@H]1O[C@@H]1O[C@H](CO)[C@@H](O)[C@H](O)[C@H]1O)C3` [stevioside], the “times sweeter than sucrose” value was 100-150 times.
